The values that follow come from PMC6727846 (Journal of medicinal chemistry, 2019).

SMILES strings stand for the structures. Read-outs that look alike come from different tables or passages of the source.

Data set [1] relates to Plasmodium falciparum 3D7 (CQ-sensitive). Put plainly: In vitro antimalarial SYBR Green I fluorescence assay. The format is cell-based. As to conditions: for effect of substitution on Pf 3D7 potency, in words: SAR statement in text.
Data set [2] concerns Plasmodium falciparum Dd2 (multi-drug resistant). Described as above. The data set is classed as cell-based.
The next data set deals with Pf PM-V (Plasmodium falciparum, UniProt Q8I6Z5). The format is cell-based. As to conditions: knockdown assay; data not shown.
Sequence of Pf PM-V (Q8I6Z5 whole entry): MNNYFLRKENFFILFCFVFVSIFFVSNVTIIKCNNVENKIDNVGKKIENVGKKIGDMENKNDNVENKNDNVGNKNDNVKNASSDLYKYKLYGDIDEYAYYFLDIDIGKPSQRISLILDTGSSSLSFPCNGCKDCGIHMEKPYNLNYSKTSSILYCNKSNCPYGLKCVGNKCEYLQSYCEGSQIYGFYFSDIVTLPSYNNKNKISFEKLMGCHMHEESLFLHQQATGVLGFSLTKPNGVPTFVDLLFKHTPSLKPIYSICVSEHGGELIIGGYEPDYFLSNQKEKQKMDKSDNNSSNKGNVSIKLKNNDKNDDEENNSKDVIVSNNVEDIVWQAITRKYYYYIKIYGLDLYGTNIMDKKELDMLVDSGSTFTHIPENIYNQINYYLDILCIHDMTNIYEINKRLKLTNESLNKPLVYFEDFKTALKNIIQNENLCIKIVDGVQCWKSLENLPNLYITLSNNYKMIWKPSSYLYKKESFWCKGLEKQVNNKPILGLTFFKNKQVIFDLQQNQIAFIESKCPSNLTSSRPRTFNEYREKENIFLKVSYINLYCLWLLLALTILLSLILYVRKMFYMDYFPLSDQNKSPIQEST
The nature of the next data set: Cytotoxicity selectivity. The format is cell-based.
A further data set concerns the target PM-X (Plasmodium falciparum, UniProt Q8IAS0). The data set is classed as cell-based. The note with it: western blot, substrate processing; data not shown.
A further data set addresses T1, PM-IX (Plasmodium falciparum, UniProt Q8ILG2).
T1 sequence (Q8ILG2 1-627): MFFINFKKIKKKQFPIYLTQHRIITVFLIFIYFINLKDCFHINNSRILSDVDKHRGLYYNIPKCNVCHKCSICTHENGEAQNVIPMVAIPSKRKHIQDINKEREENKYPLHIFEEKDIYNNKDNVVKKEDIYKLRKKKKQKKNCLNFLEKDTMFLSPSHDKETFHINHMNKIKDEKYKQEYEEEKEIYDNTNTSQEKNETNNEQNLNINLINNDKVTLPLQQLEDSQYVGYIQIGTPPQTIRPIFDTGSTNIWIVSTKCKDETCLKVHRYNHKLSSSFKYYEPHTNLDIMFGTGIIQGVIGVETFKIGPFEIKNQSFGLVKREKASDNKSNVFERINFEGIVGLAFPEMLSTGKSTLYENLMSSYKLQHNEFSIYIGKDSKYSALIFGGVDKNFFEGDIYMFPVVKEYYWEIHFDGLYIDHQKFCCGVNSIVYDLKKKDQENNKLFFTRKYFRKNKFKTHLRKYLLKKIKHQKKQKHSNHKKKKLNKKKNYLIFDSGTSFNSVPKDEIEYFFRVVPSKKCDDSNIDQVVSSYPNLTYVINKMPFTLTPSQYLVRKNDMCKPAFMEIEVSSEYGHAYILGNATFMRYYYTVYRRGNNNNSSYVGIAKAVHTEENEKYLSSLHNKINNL
The data set is classed as cell-based. The note with it: western blot, substrate processing; data not shown.

Data set [3] can be described thus: Mouse liver microsome metabolic stability. The note with it: in words.
A further data set addresses Pf plasmepsin II (PM-II) (Plasmodium falciparum, UniProt Q8I6V3). The data set is described as follows: biochemical.
[4] abbreviates: Plasmodium falciparum, 3D7, 72 h, read-out: Pf 3D7 IC50.
[5] abbreviates: Plasmodium falciparum, 3D7, read-out: Pf 3D7 IC50 (side-by-side with CQ).

Sequence of Pf plasmepsin II (PM-II) (Q8I6V3 125-453): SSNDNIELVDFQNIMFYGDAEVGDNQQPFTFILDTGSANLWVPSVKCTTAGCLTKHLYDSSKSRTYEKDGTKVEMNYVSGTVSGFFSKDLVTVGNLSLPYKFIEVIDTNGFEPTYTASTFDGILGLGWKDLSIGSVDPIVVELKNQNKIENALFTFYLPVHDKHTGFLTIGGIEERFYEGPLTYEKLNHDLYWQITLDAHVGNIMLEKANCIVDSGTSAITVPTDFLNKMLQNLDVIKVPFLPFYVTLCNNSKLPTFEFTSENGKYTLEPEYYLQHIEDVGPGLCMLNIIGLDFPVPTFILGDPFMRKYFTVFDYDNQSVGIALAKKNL
Sequence of PM-X (Q8IAS0 222-573): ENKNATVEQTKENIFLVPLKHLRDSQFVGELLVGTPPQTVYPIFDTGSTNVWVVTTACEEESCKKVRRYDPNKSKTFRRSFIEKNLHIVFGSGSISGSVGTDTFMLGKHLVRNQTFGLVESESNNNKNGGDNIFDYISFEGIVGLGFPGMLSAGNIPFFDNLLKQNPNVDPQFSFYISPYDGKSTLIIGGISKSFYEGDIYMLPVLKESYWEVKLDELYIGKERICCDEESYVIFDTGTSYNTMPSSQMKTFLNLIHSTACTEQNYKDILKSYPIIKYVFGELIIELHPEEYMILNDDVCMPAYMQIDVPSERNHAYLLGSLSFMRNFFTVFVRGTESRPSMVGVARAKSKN

With `CN(C)c1ccc(CNC(=O)[C@H]2CNC[C@@H]2c2cnc(C(F)(F)F)nc2)cc1` [compound 35], in data set [1], the “effect of substitution on Pf 3D7 potency, in words” value (“effect of substitution” below) is “modest erosion of potency”.
In the case of `C[C@@H](NC(=O)[C@H]1CNC[C@@H]1c1ccc(C(F)(F)F)nc1)c1ccc(N(C)C)cc1` [compound 55, (+)-(3R,4S)-N-[(1R)-1-[4-(dimethylamino)phenyl]ethyl]-4-[6-(trifluoromethyl)pyridin-3-yl]pyrrolidine-3-carboxamide], the “reduction / loss in potency relative to parent analog” value in data set [1] (Pf 3D7, SAR comparison stated in text) was more than 30 fold.
As for `C[C@H](NC(=O)[C@H]1CNC[C@@H]1c1ccc(C(F)(F)F)cc1)c1ccc(N(C)C)cc1` [54b, (+)-(3R,4S)-N-[(1S)-1-[4-(dimethylamino)phenyl]ethyl]-4-[4-(trifluoromethyl)phenyl]pyrrolidine-3-carboxamide], the IC50 in data set [1] (setting [4]) stood at 51 nM; in data set [1] (setting [5]) it was 46 ± 6 nM. For the same compound, the EC50 in data set [1] (Plasmodium falciparum, 3D7, read-out: EC50 against drug sensitive Plasmodium falciparum 3D7) is 46 nM; in data set [2] (DD2, read-out: EC50 against drug resistant Dd2 strain), 21 nM.
Take `COc1ccc(CNC(=O)[C@@H]2CNC[C@H]2c2ccc(C(F)(F)F)cc2)cc1` (racemic) [compound 6]: the “inhibition of Pf PM-V” value on Pf PM-V was “inactive”. For the same compound, the “increase in potency relative to H (13)” value in data set [1] (Pf 3D7, amide benzyl ring SAR) came out at 10 fold. For the same compound, the IC50 in data set [1] (setting [4]) is 385 nM. In addition, the selectivity ratio in the data set “Cytotoxicity selectivity” was found to be 100. Further, on PM-X, the “inhibition of PM-X” value was “inactive”. The “inhibition of PM-IX” value at PM-IX is “inactive”. Also, the “metabolic stability profile in mouse liver microsomes” value in data set [3] is given as “improved”.
At Pf plasmepsin II (PM-II), `CN(C)c1ccc(CNC(=O)[C@@H]2CNC[C@H]2c2ccc(C(F)(F)F)c(F)c2)cc1` [compound 24] came in with an IC50 of more than 10000 nM.
In turn, `CN(C)c1ccc(CNC(=O)[C@@H]2CNC[C@H]2c2ccc(Oc3ccccc3)cc2)cc1` [compound 30] had an IC50 against Pf plasmepsin II (PM-II) of more than 10000 nM. In data set [1], the “effect of substitution” value is recorded as “tolerated”.
`CN(C)c1ccc(CNC(=O)[C@H]2CNC[C@@H]2c2ccc(C(F)(F)F)cc2)cc1` [compound 14] gave an IC50 against Pf plasmepsin II (PM-II) of more than 10000 nM.
On to `CCN(CC)CCCC(C)Nc1ccnc2cc(Cl)ccc12` (stereo not drawn) [chloroquine, reference compound], for which the IC50 is 54 ± 0.4 nM in data set [1] (setting [4]); 38 ± 2 nM in data set [1] (setting [5]); 196 ± 14 nM in data set [2] (DD2, read-out: Pf Dd2 IC50 (side-by-side with CQ)).
On to `CN(C)c1ccc(CNC(=O)[C@H]2CNC[C@@H]2c2ccc(C(F)(F)F)nc2)cc1` (racemic) [compound 34], for which the figures for the IC50 (against Pf plasmepsin II (PM-II); in data set [1] (setting [4])) were more than 10000 nM and 230 nM, respectively. The “effect of substitution” value in data set [1] is on record as “without loss in potency”.
Compound `CCN(CC)c1ccc(CNC(=O)[C@@H]2CNC[C@H]2c2ccc(C(F)(F)F)cc2)cc1` [compound 16] displayed an IC50 on Pf plasmepsin II (PM-II) of more than 10000 nM.
The same measure, in the same setting: the value for `CN(C)c1ccc(CNC(=O)[C@@H]2CNC[C@H]2c2ccc(C(F)(F)F)c(Cl)c2)cc1` [compound 26] was more than 10000 nM; that for `Cc1ccc(CNC(=O)[C@@H]2CNC[C@H]2c2ccc(C(F)(F)F)cc2)cc1` [compound 12] was more than 10000 nM.
For `C[C@@H]1CC[C@H]2[C@@H](C)C(=O)O[C@@H]3O[C@@]4(C)CC[C@@H]1[C@]32OO4` [artemesinin, reference compound], the IC50 in data set [1] (setting [4]) amounted to 33 ± 0.6 nM.
